For data set [1] the following is noted: in non-polar solvents; cited from earlier work.
Data set [2] is described as follows: Stern-Volmer fluorescence quenching of p-terphenyl. Conditions: p-terphenyl 10^−5 M. It is filed as physicochemical. Further details: unit not given here. From the text: p-Oligophenylenes are known as durable fluorophores, and commonly used as a dye in dye lasers due to their resistance to photobleaching, a desirable characteristic for this application.
A short description of data set [3]: 19F PFG NMR diffusion in ionic liquid. The note with it: in N-methyl-N,N,N-trioctylammonium bis-triflylamide. It is filed as physicochemical. From the text: Another use of ionic liquids for photoamplified bioanalytical methods is for electrochemical detection. […] Unmasking of the sensitizer dramatically changes the redox properties of the system which can be utilized in electrochemical detection of photoamplification. Again, as mentioned above, ionic liquids can be gelated and used in a form of pixilated bioanalytical array. […] The ^19F PFG NMR measurements of diffusion of 4-(trifluoromethyl)benzophenone in N-methyl-N,N,N-trioctylammonium bis-triflylamide produced the translational diffusion coefficient of 9×10^−7 cm^2 s^−1, which is still adequate for bimolecular collisional quenching of triplet benzophenone, necessary for the photoamplification. N-Methyl-N,N,N-trioctylammonium bis-triflylamide is the most viscous ionic liquid which we tested in our experiments. Other, much less viscous ionic liquids, for example N,N-dimethyl-N,N-dihexylammonium bis-triflylamide, performed even better.

Data set [4] in a line: Pulse Field Gradient 19F NMR diffusion in N-n-octadecylurea organogels made in t-butyl benzene. It is filed as physicochemical. From the text: The PFG NMR experiments allow for measuring diffusion coefficients of molecules of interest in complex mixtures, including gels. The successful photoamplification relies on adequate diffusion coefficients. The diffusion coefficients obtained for 4-trifluoromethylbenzophenone in gelated tert-butylbenzene and other solvents were within 10-15% of that in free (not gelated) solvents, which means that the gelation has no detrimental effect on photochemistry.

The conditions of data set [5]: near diffusion controlled; previously shown; cited from earlier work.
A short description of data set [6]: Stern-Volmer fluorescence quenching of fluorene. The data set is classed as physicochemical. Further details: unit not given here. The note with it: fluorene 10^−5 M, in CH2Cl2.

The structures appear in SMILES notation.

With `c1ccc2c(c1)Cc1ccccc1-2` [Fluorene], the fluorescence lifetime in data set [1] was 10 ns.

Regarding `OC(c1ccccc1)c1ccccc1` [benzhydrol], the “Ksv, fluorescence quenching of p-terphenyl” value (shortened to “Ksv … of p-terphenyl”) in data set [2] (in CH2Cl2) was “smaller than for MDT BP adduct”.

Regarding `O=C(c1ccccc1)c1ccc(C(F)(F)F)cc1` [4-trifluoromethyl-benzophenone, 4-trifluoromethylbenzophenone], the translational diffusion coefficient in data set [3] was 9×10^−7 cm^2 s^−1. Moreover, the “Diffusion Coefficient” value in data set [4] (0 % N-n-Octadecylurea, t-butyl benzene) is on record as 6.50 × 10^−6 cm^2 s^−1; in data set [4] (2 % N-n-Octadecylurea, t-butyl benzene organogel), 5.32 × 10^−6 cm^2 s^−1; in data set [4] (4 % N-n-Octadecylurea, t-butyl benzene organogel), 5.60 × 10^−6 cm^2 s^−1; in data set [4] (6 % N-n-Octadecylurea, t-butyl benzene organogel), 5.34 × 10^−6 cm^2 s^−1. Moreover, the “Difference of diffusion coefficient in gelated solvent from that in free (not gelated) solvent” value in data set [4] (gelated tert-butylbenzene and other solvents) is 10-15%.

On to `CC1(C(O)(c2ccccc2)c2ccccc2)SCCCS1` [MDT BP adduct, 2-methyl-1,3-dithiane benzophenone adduct], for which the “Ksv … of p-terphenyl” value in data set [2] (in CH2Cl2) is 80; in data set [2] (in t-BuPh), 40. The “rate of quenching of benzophenone triplet via electron transfer reduction” value in data set [5] was 10^9 M^−1 s^−1. Further, the “Ksv, fluorescence quenching of fluorene” value in data set [6] was 2300.

With `CC1SCCCS1` [dithiane, 2-methyl-1,3-dithiane], the “Ksv … of p-terphenyl” value in data set [2] (in CH2Cl2) is “smaller than for MDT BP adduct”.

These data come from patent US8735167B2, “Photoinduced signal amplification through externally sensitized photofragmentation in masked photosensitizers and photoamplified fluorescence turn-off system” (Colorado Seminary, which owns and operates The University …, priority 2007, dated 2014).
